The supplement of paper PMC10307832

Tests used:
Experiment in all cases: relative viability (nuclei count vs DMSO), 5 days (fraction); higher = more cells survive
Vismodegib + AZD7762 = compound: CS(=O)(=O)c1ccc(C(=O)Nc2ccc(Cl)c(-c3ccccn3)c2)c(Cl)c1 [Vismodegib] + NC(=O)Nc1cc(-c2cccc(F)c2)sc1C(=O)N[C@H]1CCCNC1 [AZD7762] (partner 0.2 µM)
Summary of the method: (§1)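 One day after seeding in 1536-well plates, lung cancer cell lines were dosed by pin tool. Dosing was either single-drug or a fixed anchor-drug dose plus five library-drug doses (not always all listed) in √10 steps. After 5 days, nuclei were stained in one fix-and-stain step and counted on 4× images, and relative viability is the nuclei count of treated wells over that of vehicle wells, given as the median of duplicate plates.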

VE-821 + Palbociclib = compound: CS(=O)(=O)c1ccc(-c2cnc(N)c(C(=O)Nc3ccccc3)n2)cc1 [VE-821] + CC(=O)c1c(C)c2cnc(Nc3ccc(N4CCNCC4)cn3)nc2n(C2CCCC2)c1=O [Palbociclib] (partner 0.5 µM)
Summary of the method: as §1

Vismodegib + OSI-027 = compound: CS(=O)(=O)c1ccc(C(=O)Nc2ccc(Cl)c(-c3ccccn3)c2)c(Cl)c1 [Vismodegib] + COc1cccc2cc(-c3nc([C@H]4CC[C@H](C(=O)O)CC4)n4ncnc(N)c34)[nH]c12 [OSI-027] (partner 0.5 µM)
Summary of the method: as §1

VE-821 + Dasatinib = compound: CS(=O)(=O)c1ccc(-c2cnc(N)c(C(=O)Nc3ccccc3)n2)cc1 [VE-821] + Cc1nc(Nc2ncc(C(=O)Nc3c(C)cccc3Cl)s2)cc(N2CCN(CCO)CC2)n1 [Dasatinib] (partner 0.075 µM)
Summary of the method: as §1

| Cell Line | relative viability (Vismodegib + AZD7762; first compound 0.08 µM) | relative viability (Vismodegib + AZD7762; first compound 0.253 µM) | relative viability (Vismodegib + AZD7762; first compound 0.8 µM) | relative viability (Vismodegib + AZD7762; first compound 2.53 µM) | relative viability (Vismodegib + AZD7762; first compound 8 µM) | relative viability (VE-821 + Palbociclib; first compound 0.08 µM) | relative viability (VE-821 + Palbociclib; first compound 0.253 µM) | relative viability (VE-821 + Palbociclib; first compound 0.8 µM) | relative viability (VE-821 + Palbociclib; first compound 2.53 µM) | relative viability (VE-821 + Palbociclib; first compound 8 µM) | relative viability (Vismodegib + OSI-027; first compound 0.08 µM) | relative viability (Vismodegib + OSI-027; first compound 0.253 µM) | relative viability (Vismodegib + OSI-027; first compound 0.8 µM) | relative viability (Vismodegib + OSI-027; first compound 2.53 µM) | relative viability (Vismodegib + OSI-027; first compound 8 µM) | relative viability (VE-821 + Dasatinib; first compound 0.08 µM) | relative viability (VE-821 + Dasatinib; first compound 0.253 µM) | relative viability (VE-821 + Dasatinib; first compound 0.8 µM) | relative viability (VE-821 + Dasatinib; first compound 2.53 µM) | relative viability (VE-821 + Dasatinib; first compound 8 µM) |
| --- | --- | --- | --- | --- | --- | --- | --- | --- | --- | --- | --- | --- | --- | --- | --- | --- | --- | --- | --- | --- |
| NCI-H1915 | 0.724 | 0.667 | 0.714 | 0.716 | 0.749 | 0.558 | 0.532 | 0.54 | 0.547 | 0.452 | 0.669 | 0.592 | 0.536 | 0.566 | 0.608 | 0.335 | 0.295 | 0.345 | 0.33 | 0.332 |
| NCI-H1944 | 0.492 | 0.557 | 0.408 | – | 0.505 | 0.408 | 0.325 | 0.256 | 0.354 | 0.236 | 0.413 | 0.391 | 0.422 | 0.388 | 0.442 | 0.22 | 0.213 | 0.185 | 0.27 | 0.228 |
| NCI-H1975 | 0.689 | 0.649 | 0.642 | 0.729 | 0.631 | 0.601 | 0.473 | 0.349 | 0.607 | 0.415 | 0.724 | 0.633 | 0.686 | 0.632 | 0.607 | 0.372 | 0.287 | – | 0.278 | 0.253 |
| NCI-H1993 | 0.751 | 0.912 | 0.84 | 0.768 | 0.712 | 0.673 | 0.619 | 0.561 | 0.635 | 0.537 | 0.572 | 0.479 | 0.579 | 0.562 | 0.594 | 0.563 | 0.503 | 0.523 | 0.524 | 0.538 |
| NCI-H2085 | 0.972 | 0.972 | 1.11 | 0.997 | 0.914 | 0.481 | 0.489 | 0.493 | – | 0.552 | 0.9 | 0.732 | 0.756 | 0.74 | 0.662 | 0.214 | 0.259 | 0.192 | 0.226 | 0.202 |
| NCI-H2087 | 1.28 | 1.14 | 1.14 | 1.33 | 1.36 | 0.263 | 0.192 | 0.292 | 0.259 | 0.297 | 0.645 | 0.476 | 0.398 | 0.618 | 0.39 | 0.871 | 0.814 | 0.912 | 1.2 | 0.786 |
| NCI-H2126 | 1.08 | 0.912 | 0.978 | 0.933 | 1.03 | 0.36 | 0.336 | 0.333 | 0.296 | 0.32 | 0.793 | 0.759 | – | 0.69 | 0.604 | 0.57 | 0.52 | 0.515 | 0.427 | 0.36 |
| NCI-H2170 | 0.913 | 0.838 | 0.974 | 0.866 | 0.909 | 0.432 | 0.414 | 0.381 | 0.45 | 0.32 | 0.658 | 0.609 | 0.686 | 0.723 | 0.699 | 0.62 | 0.465 | 0.463 | 0.421 | 0.381 |
